From patent publication US20250195500A1, “INJECTABLE PREPARATION COMPRISING ISOXAZOLINE DERIVATIVE, AND PREPARATION METHOD THEREFOR” (LG CHEM, LTD., priority 2022, published 2025)
“Also recorded” adds a separate entry of the source.

What was measured:
[1] = Solubility in solvents of various compositions; type: physicochemical
From the text: Further, it was confirmed that the compound of Formula 1 has the property of reducing the pH of a solution while being dissolved in a solvent.

caspase = experiment: Caspase inhibitory activity; type: biochemical; details: form present in aqueous solution
[2] = Conversion from compound of Formula 2 to compound of Formula 3 according to pH of solvent; type: physicochemical

solubility in solvent ([1]; basic solvent pH 9.0 or higher, strong acidic solvent pH 1 or lower or specific solvent that can be freeze-dried)	production of compound of Formula 3 from compound of Formula 2 ([2]; acidic solvent)	production of compound of Formula 3 from compound of Formula 2 ([2]; neutral or more basic solvent)	SMILES	solubility in water ([1]; water)	caspase inhibitory activity (caspase)
dissolves well			CC(C)[C@@]1(C(=O)NC2CC(=O)OC2(O)CF)CC(c2nccc3ccccc23)=NO1 (stereo in doubt) [compound of Formula 1, (R)—N-((2S,3S)-2-(fluoromethyl)-2-hydroxy-5-oxotetrahydrofuran-3-yl)-5-isopropyl-3-(isoquinolin-1-yl)-4,5-dihydroisoxazol-5-carboxamide]	poorly soluble in water; also recorded: hardly soluble in water	
			CC(C)[C@@]1(C(=O)N[C@@H](CC(=O)O)C(=O)CF)CC(c2nccc3ccccc23)=NO1 [compound of Formula 2]		active form
	hardly produced	rapidly produced	CC(C)[C@@]1(C(=O)N[C@H](CC(=O)O)C(=O)CF)CC(c2nccc3ccccc23)=NO1 [compound of Formula 3]		does not show the caspase inhibitory activity
